How the values were obtained:
Assay in all cases: Kinase inhibitor library screening, PrestoBlue cell viability, 1 or 10 μM, 72 h
[1] = system: A375-GP cells (Dabrafenib-resistant)
[2] = system: 501Mel cells (parental); conditions: 72 h
Procedure, shortened: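 Each compound was applied to parental melanoma cells and to derivatives made resistant to Vemurafenib or Dabrafenib. After treatment, viability was read with PrestoBlue on a plate reader and expressed as % of untreated cells, with each line run at least in duplicate.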

[3] = system: A375 cells (parental)
[4] = system: IGR37-XP cells (Vemurafenib-resistant)
[5] = system: A375-XP cells (Vemurafenib-resistant)
[6] = system: IGR37-GP cells (Dabrafenib-resistant)
[7] = system: IGR37 cells (parental)
[8] = system: 501Mel-XP cells (Vemurafenib-resistant); conditions: 72 h
[9] = system: 501Mel-GP cells (Dabrafenib-resistant); conditions: 72 h
[10] = IGR37 Parental, 1μΜ, 72 h, in %
[11] = IGR37 Parental, 10μΜ, 72 h, in %

## C[C@H](NC(=O)/C(C#N)=C/c1cccc(Br)n1)c1ccccc1 [WP1066]
[1]; Homo sapiens, A-375, 72 h, read-out: cell viability, A375 GP, 1μΜ
  viability at 1 µM: 92.5%
[1]; Homo sapiens, A-375, 72 h, read-out: cell viability, A375 GP, 10μΜ
  viability at 10 µM: 4.5%
[2]; Homo sapiens, read-out: cell viability, 501Mel Parental, 1μΜ
  viability at 1 µM: 96.9%
[2]; Homo sapiens, read-out: cell viability, 501Mel Parental, 10μΜ
  viability at 10 µM: 0.369%
[3]; Homo sapiens, A-375, 72 h, read-out: cell viability, A375 Parental, 1μΜ
  viability at 1 µM: 106%
[3]; Homo sapiens, A-375, 72 h, read-out: cell viability, A375 Parental, 10μΜ
  viability at 10 µM: 5.4%
[4]; Homo sapiens, IGR-37, 72 h, read-out: cell viability, IGR37 XP, 1μΜ
  viability at 1 µM: 92.4%
[4]; Homo sapiens, IGR-37, 72 h, read-out: cell viability, IGR37 XP, 10μΜ
  viability at 10 µM: 3.2%
[5]; Homo sapiens, A-375, 72 h, read-out: cell viability, A375 XP, 1μΜ
  viability at 1 µM: 103%
[5]; Homo sapiens, A-375, 72 h, read-out: cell viability, A375 XP, 10μΜ
  viability at 10 µM: 6.7%
[6]; Homo sapiens, IGR-37, 72 h, read-out: cell viability, IGR37 GP, 1μΜ
  viability at 1 µM: 92.6%
[6]; Homo sapiens, IGR-37, 72 h, read-out: cell viability, IGR37 GP, 10μΜ
  viability at 10 µM: 5.1%
[7]; Homo sapiens, IGR-37, 72 h, read-out: cell viability, IGR37 Parental, 1μΜ
  viability at 1 µM: 110%
[7]; Homo sapiens, IGR-37, 72 h, read-out: cell viability, IGR37 Parental, 10μΜ
  viability at 10 µM: 0.9%
[8]; Homo sapiens, read-out: cell viability, 501Mel XP, 1μΜ
  viability at 1 µM: 91.3%
[8]; Homo sapiens, read-out: cell viability, 501Mel XP, 10μΜ
  viability at 10 µM: -0.0613%
[9]; Homo sapiens, read-out: cell viability, 501Mel GP, 1μΜ
  viability at 1 µM: 102%
[9]; Homo sapiens, read-out: cell viability, 501Mel GP, 10μΜ
  viability at 10 µM: 1.2%

## O=C(NOCC1CC1)c1ccc(F)c(F)c1Nc1ccc(I)cc1Cl [CI-1040 (PD184352)]
[1]; A375 GP, 1μΜ, 72 h, in %
  cell viability, A375 GP, 1μΜ: 35.2
[1]; A375 GP, 10μΜ, 72 h, in %
  cell viability, A375 GP, 10μΜ: 16.8
[2]; 501Mel Parental, 1μΜ, in %
  cell viability, 501Mel Parental, 1μΜ: 64.1
[2]; 501Mel Parental, 10μΜ, in %
  cell viability, 501Mel Parental, 10μΜ: 50.2
[3]; A375 Parental, 1μΜ, 72 h, in %
  cell viability, A375 Parental, 1μΜ: 22.5
[3]; A375 Parental, 10μΜ, 72 h, in %
  cell viability, A375 Parental, 10μΜ: 21.5
[4]; IGR37 XP, 10μΜ, 72 h
  cell viability, IGR37 XP, 10μΜ: 26.4%
[4]; IGR37 XP, 1μΜ, 72 h, in %
  cell viability, IGR37 XP, 1μΜ: 81.9
[5]; A375 XP, 1μΜ, 72 h, in %
  cell viability, A375 XP, 1μΜ: 44.6
[5]; A375 XP, 10μΜ, 72 h, in %
  cell viability, A375 XP, 10μΜ: 12.9
[6]; IGR37 GP, 10μΜ, 72 h
  cell viability, IGR37 GP, 10μΜ: 55.9%
[6]; IGR37 GP, 1μΜ, 72 h, in %
  cell viability, IGR37 GP, 1μΜ: 84.8
[7]; [10]
  cell viability, IGR37 Parental, 1μΜ: 43.0
[7]; [11]
  cell viability, IGR37 Parental, 10μΜ: 35.8
[8]; 501Mel XP, 1μΜ, in %
  cell viability, 501Mel XP, 1μΜ: 81.0
[8]; 501Mel XP, 10μΜ, in %
  cell viability, 501Mel XP, 10μΜ: 46.4
[9]; 501Mel GP, 1μΜ, in %
  cell viability, 501Mel GP, 1μΜ: 98.8
[9]; 501Mel GP, 10μΜ, in %
  cell viability, 501Mel GP, 10μΜ: 56.0

## CCCS(=O)(=O)Nc1ccc(F)c(C(=O)c2c[nH]c3ncc(Cl)cc23)c1F [PLX-4720]
[1]; A375 GP, 1μΜ, 72 h
  Cell viability in kinase inhibitor library screening, A375 GP, 1μΜ: 83.9
[1]; A375 GP, 10μΜ, 72 h
  Cell viability in kinase inhibitor library screening, A375 GP, 10μΜ: 78.1
[2]; 501Mel Parental, 1μΜ, in %
  Cell viability in kinase inhibitor library screening, 501Mel Parental, 1μΜ: 63.2
[2]; 501Mel Parental, 10μΜ, in %
  Cell viability in kinase inhibitor library screening, 501Mel Parental, 10μΜ: 55.8
[3]; A375 Parental, 10μΜ, 72 h
  Cell viability in kinase inhibitor library screening, A375 Parental, 10μΜ: 14.6
[3]; A375 Parental, 1μΜ, 72 h
  Cell viability in kinase inhibitor library screening, A375 Parental, 1μΜ: 32.1
[4]; IGR37 XP, 10μΜ, 72 h
  Cell viability in kinase inhibitor library screening, IGR37 XP, 10μΜ: 52.5%
[4]; IGR37 XP, 1μΜ, 72 h, in %
  Cell viability in kinase inhibitor library screening, IGR37 XP, 1μΜ: 99.4
[5]; A375 XP, 1μΜ, 72 h
  Cell viability in kinase inhibitor library screening, A375 XP, 1μΜ: 102.9
[5]; A375 XP, 10μΜ, 72 h
  Cell viability in kinase inhibitor library screening, A375 XP, 10μΜ: 79.1
[6]; IGR37 GP, 10μΜ, 72 h
  Cell viability in kinase inhibitor library screening, IGR37 GP, 10μΜ: 79%
[6]; IGR37 GP, 1μΜ, 72 h, in %
  Cell viability in kinase inhibitor library screening, IGR37 GP, 1μΜ: 97.0
[7]; [10]
  Cell viability in kinase inhibitor library screening, IGR37 Parental, 1μΜ: 44.1
[7]; [11]
  Cell viability in kinase inhibitor library screening, IGR37 Parental, 10μΜ: 31.4
[8]; 501Mel XP, 1μΜ, in %
  Cell viability in kinase inhibitor library screening, 501Mel XP, 1μΜ: 96.2
[8]; 501Mel XP, 10μΜ, in %
  Cell viability in kinase inhibitor library screening, 501Mel XP, 10μΜ: 64.4
[9]; 501Mel GP, 1μΜ, in %
  Cell viability in kinase inhibitor library screening, 501Mel GP, 1μΜ: 104.7
[9]; 501Mel GP, 10μΜ, in %
  Cell viability in kinase inhibitor library screening, 501Mel GP, 10μΜ: 77.9

Reference: publication PMC6364417, “Kinase inhibitor library screening identifies synergistic drug combinations effective in sensitive and resistant melanoma cells” (Journal of Experimental & Clinical Cancer Research : CR, 2019)
